In US6642392B1 (priority 1997, dated 2003):
Like-named read-outs stand apart in the source and are kept apart here.

Legend:
Format in all cases: in vivo
Pyricularia oryzae = conditions: for Test C disease control rating: rice blast; for Test C disease control rating (100 = 100% disease control, 0 = no disease control): rice seedlings sprayed to run-off, inoculated the following day, rating relative to controls, unmarked compounds (standard test rate)
Botrytis cinerea = experiment: Test E: gray mold, preventive spray on cucumber seedlings; conditions: for Test E disease control rating: gray mold on cucumber; for Test E disease control rating (100 = 100% disease control, 0 = no disease control): cucumber seedlings sprayed to run-off, inoculated the following day, rating relative to controls, unmarked compounds (standard test rate)
Procedure, shortened: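 Preventive spray on cucumber seedlings used a suspension (3% acetone, 250 ppm Trem 014), applied to run-off one day before inoculation with Botrytis cinerea spores. Plants were held 48 h at 20° C in saturated air, then 5 days at 20° C. Percent disease control was scored relative to untreated plants.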

Puccinia recondita = experiment: Test B: wheat leaf rust, preventive spray on wheat seedlings; conditions: for Test B disease control rating: wheat leaf rust; for Test B disease control rating (100 = 100% disease control, 0 = no disease control): wheat seedlings sprayed to run-off, inoculated the following day, rating relative to controls, unmarked compounds (standard test rate)
Procedure, shortened: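 Preventive test: P. recondita spores were applied one day after a run-off spray of compound suspension on wheat seedlings. Plants had 24 h at 20 °C in saturated air plus 6 days in a 20 °C growth chamber. Scoring is % disease control (100 = full) relative to controls.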

Phytophthora infestans = conditions: for Test D disease control rating: tomato late blight; for Test D disease control rating (100 = 100% disease control, 0 = no disease control): tomato seedlings sprayed to run-off, inoculated the following day, rating relative to controls, unmarked compounds (standard test rate)
[1] = test system: Eiysiphe graminis f. sp. tritici; experiment: Test A: wheat powdery mildew, preventive spray on wheat seedlings; conditions: for Test A disease control rating: wheat powdery mildew; for Test A disease control rating (100 = 100% disease control, 0 = no disease control): wheat seedlings sprayed to run-off, inoculated the following day, rating relative to controls, unmarked compounds (standard test rate)
Procedure, shortened: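 Preventive test: seedlings inoculated with powdery mildew spores one day after run-off spraying of a suspension. Ratings after 7 days in a 20° C growth chamber express percent disease control versus controls.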

[2] = 100 = 100% disease control, 0 = no control, unmarked entries (standard test concentration)
[3] = 100 = 100% disease control, 0 = no control relative to controls, unmarked entries (standard test concentration)

SMILES: CCC1(C(=O)NC(C)COc2cccc(F)c2)C(C)C1(Cl)Cl (mixture of isomers) [79a]
- Test C disease control rating (Pyricularia oryzae; tested at 40 ppm): 53%
- Test E disease control rating (Botrytis cinerea; tested at 40 ppm): 0%
- Test B disease control rating (Puccinia recondita; tested at 40 ppm): 0%
- Test D disease control rating (Phytophthora infestans; tested at 40 ppm): 0%
- Test A disease control rating ([1]; tested at 40 ppm): 0%

SMILES: C=CCC(C#N)C(=O)NC(C)C(Oc1ccccc1C#N)c1ccccc1 (mixture of isomers) [compound 285]
- Test C disease control rating (100 = 100% disease control, 0 = no disease control) (Pyricularia oryzae): 97%
- Test E disease control rating (100 = 100% disease control, 0 = no disease control) (Botrytis cinerea): 0%
- Test B disease control rating (100 = 100% disease control, 0 = no disease control) (Puccinia recondita): 0%
- Test D disease control rating (100 = 100% disease control, 0 = no disease control) (Phytophthora infestans): 0%
- Test A disease control rating (100 = 100% disease control, 0 = no disease control) [1]: 59%

SMILES: CCC1(C(=O)NC(C)CCc2ccccc2)C(C)C1(Cl)Cl (mixture of isomers) [compound 244]
- Test C disease control rating (100 = 100% disease control, 0 = no disease control) (Pyricularia oryzae): 99%
- Test E disease control rating (100 = 100% disease control, 0 = no disease control) (Botrytis cinerea): 0%
- Test B disease control rating (100 = 100% disease control, 0 = no disease control) (Puccinia recondita): 0%
- Test D disease control rating (100 = 100% disease control, 0 = no disease control) (Phytophthora infestans): 74%
- Test A disease control rating (100 = 100% disease control, 0 = no disease control) [1]: 86%

SMILES: CCC1(C(=O)NC(C)COc2ccc(C)cc2Cl)C(C)C1(Cl)Cl (centres unmarked) [compound 126]
- Test C disease control rating (Pyricularia oryzae; tested at 40 ppm): 73%
- Test E disease control rating (Botrytis cinerea; tested at 40 ppm): 0%
- Test B disease control rating (Puccinia recondita; tested at 40 ppm): 0%
- Test D disease control rating (Phytophthora infestans; tested at 40 ppm): 0%
- Test A disease control rating ([1]; tested at 40 ppm): 0%

SMILES: CC(COc1cccc(Cl)c1)NC(=O)C(C#N)C(C)(C)C (mixture of isomers) [6b]
- Test C disease control rating (Pyricularia oryzae; [2]): 53%
- Test E disease control rating (Botrytis cinerea; [2]): 0%
- Test B disease control rating (Puccinia recondita; [2]): 68%
- Test D disease control rating (Phytophthora infestans; [2]): 4%
- Test A disease control rating [1, 3]: 38%

SMILES: C=CC(C)(C)C(C#N)C(=O)NC(C)COc1cc(C)ccc1F (mixture of isomers) [compound 282]
- Test C disease control rating (100 = 100% disease control, 0 = no disease control) (Pyricularia oryzae): 100%
- Test E disease control rating (100 = 100% disease control, 0 = no disease control) (Botrytis cinerea): 0%
- Test B disease control rating (100 = 100% disease control, 0 = no disease control) (Puccinia recondita): 0%
- Test D disease control rating (100 = 100% disease control, 0 = no disease control) (Phytophthora infestans): 24%
- Test A disease control rating (100 = 100% disease control, 0 = no disease control) [1]: 0%

SMILES: C[C@H](COc1cc(F)cc(F)c1Cl)NC(=O)C(C#N)C(C)(C)C (single isomer, unassigned) [169b]
- Test C disease control rating (Pyricularia oryzae; [2]): 97%
- Test E disease control rating (Botrytis cinerea; [2]): 0%
- Test B disease control rating (Puccinia recondita; [2]): 0%
- Test D disease control rating (Phytophthora infestans; [2]): 0%
- Test A disease control rating [1, 3]: 0%

SMILES: C=CC(C)(CF)C(C#N)C(=O)NC(C)COc1cc(Cl)ccc1Cl (mixture of isomers) [compound 219]
- Test C disease control rating (100 = 100% disease control, 0 = no disease control) (Pyricularia oryzae): 99%
- Test E disease control rating (100 = 100% disease control, 0 = no disease control) (Botrytis cinerea): 0%
- Test B disease control rating (100 = 100% disease control, 0 = no disease control) (Puccinia recondita): 86%
- Test D disease control rating (100 = 100% disease control, 0 = no disease control) (Phytophthora infestans): 96%
- Test A disease control rating (100 = 100% disease control, 0 = no disease control) [1]: 86%

SMILES: C[C@H](COc1ccc(F)c(F)c1Br)NC(=O)C(C#N)C(C)(C)C (single isomer, unassigned) [187a]
- Test C disease control rating (Pyricularia oryzae; [2]): 94%
- Test E disease control rating (Botrytis cinerea; [2]): 6%
- Test B disease control rating (Puccinia recondita; [2]): 28%
- Test D disease control rating (Phytophthora infestans; [2]): 9%
- Test A disease control rating [1, 3]: 0%

SMILES: C[C@H](COc1ccccc1F)NC(=O)C(C#N)C(C)(C)C (single isomer, unassigned) [2c]
- Test C disease control rating (Pyricularia oryzae; [2]): 100%
- Test E disease control rating (Botrytis cinerea; [2]): 0%
- Test B disease control rating (Puccinia recondita; [2]): 0%
- Test D disease control rating (Phytophthora infestans; [2]): 24%
- Test A disease control rating [1, 3]: 86%

SMILES: CC(COc1c(Cl)cccc1Cl)NC(=O)C(C#N)C(C)(C)C (mixture of isomers) [compound 34]
- Test C disease control rating (Pyricularia oryzae; [2]): 91%
- Test E disease control rating (Botrytis cinerea; [2]): 0%
- Test B disease control rating (Puccinia recondita; [2]): 85%
- Test D disease control rating (Phytophthora infestans; [2]): 0%
- Test A disease control rating [1, 3]: 62%

SMILES: CCC1(C(=O)NC(C)C=Cc2cc(F)ccc2F)C(C)C1(Cl)Cl (single isomer, unassigned) [267a]
- Test C disease control rating (100 = 100% disease control, 0 = no disease control) (Pyricularia oryzae): 97%
- Test E disease control rating (100 = 100% disease control, 0 = no disease control) (Botrytis cinerea): 55%
- Test B disease control rating (100 = 100% disease control, 0 = no disease control) (Puccinia recondita): 0%
- Test D disease control rating (100 = 100% disease control, 0 = no disease control) (Phytophthora infestans): 0%
- Test A disease control rating (100 = 100% disease control, 0 = no disease control) [1]: 78%

SMILES: C=CCc1ccccc1OCC(C)NC(=O)C1(C)CC1(Cl)Cl (mixture of isomers) [compound 314]
- Test C disease control rating (100 = 100% disease control, 0 = no disease control) (Pyricularia oryzae): 72%
- Test E disease control rating (100 = 100% disease control, 0 = no disease control) (Botrytis cinerea): 0%
- Test B disease control rating (100 = 100% disease control, 0 = no disease control) (Puccinia recondita): 0%
- Test D disease control rating (100 = 100% disease control, 0 = no disease control) (Phytophthora infestans): 0%
- Test A disease control rating (100 = 100% disease control, 0 = no disease control) [1]: 0%
